Test results from patent US9096607B2, “Tumor necrosis factor inhibitors” (THE TRUSTEES OF THE UNIVERSITY OF PENNSYLVANIA, priority 2005, dated 2015).

Key:
[1] = biological target: T1, mutant TNF-R1 (Homo sapiens, UniProt P19438, F141E/Q111E); assay: Isothermal titration calorimetry, binding to mutant TNF-R1 (82E, 112E); conditions: ITC, TNF-R1 mutated to 82E and 112E
T1 construct: The ectodomain of wild type TNF receptor 1 was obtained by PCR from pKP13; made in house
T1 sequence (P19438 30-211 Q111E/F141E limits assumed): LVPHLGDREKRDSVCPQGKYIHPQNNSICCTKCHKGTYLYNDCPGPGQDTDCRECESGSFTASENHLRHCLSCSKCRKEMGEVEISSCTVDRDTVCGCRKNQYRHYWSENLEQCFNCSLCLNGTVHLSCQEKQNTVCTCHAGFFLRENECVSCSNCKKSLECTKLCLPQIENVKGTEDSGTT
Description: The ectodomain of wild type TNF receptor 1 was obtained by PCR from pKP13 (as described in Beutler et al., Annu. Rev. Biochem. 57, 505-518 (1988)) with 5′ primer AAAAAACATATGTACCCCTCAGGGGTTATTGG (SEQ ID NO:2) and 3′ primer CCGCTCGAGTCAATGATGATG ATGATG ATGTGTGGTGCCTGAGTCCTCAG, (SEQ ID NO:3) and constructed into PET21 (Novagen, San Diego, Calif.) between Nde1 and XhoT, verified by sequencing. Mutant TNF receptor 1 was obtained from site-directed mutagenesis by using a QuikChange mutagenesis kit (Stratagene, La Jolla, Calif.). The plasmid was then transformed into Origami™ (DE3) (Novagen, San Diego, Calif.). The cells were grown until A600 was 0.6 and were induced by addition of 0.2 mM of IPTG. The cells were then induced for 3 h and harvested by centrifugation at 3500 rpm for 10 min. The wild type and mutant TNF-R1 were all expressed in the inclusion bodies of the cells and were extracted and refolded as described in Lin et al., Biotechniques 11, 748 (December 1991). […]
The binding thermodynamics of inhibitors to the TNF receptor was measured by isothermal titration calorimetry (ITC) using a high-precision VP-ITC titration calorimetric system (MicroCal Inc, Northampton, Mass.). […] Data were analyzed and fitted using the data analysis software supplied by MicroCal (Origin version 5.0).

[2] = tested on: TNF-α signaling in L929 cells; assay: Inhibition of TNF-α signaling in L929 cells (western blot); format: cell-based, murine; conditions: 2 h pretreatment, TNF-α 20 ng/mL
Description: The effect of compound I-9 on TNF-α signaling was examined in L929 cells (American Type Culture Collection, Manassas, Va.). Cells were cultured in RPMI (Invitrogen) containing 5% fetal bovine serum. Cells (1×10^6/well) were cultured in 6-well plates for 12 h, treated with or without small molecule for 2 h, and then stimulated with TNF-α at 20 ng/mL for the indicated periods. Cells were then washed with ice-cold phosphate-buffered saline and lysed with lysis buffer. Cell lysates ([…]) were separated by 12% SDS-PAGE, electroblotted onto nitrocellulose membrane (Osmonics, Westborough, Mass.), and probed with anti-phospho-IκBα, anti-IκBα, anti-phospho-p38, anti-p38, and anti-β-actin antibodies (Cell Signaling Technology, Inc., Beverly, Mass.) and developed using an enhanced chemiluminescence (ECL) system (Amersham Biosciences, Piscataway, N.J.).

In the case of CC(=O)Oc1ccc(C(C)(c2ccc(OC(C)=O)cc2)c2ccc(OC(C)=O)cc2)cc1 [Compound I-9, 1,1,1-Tris-(4-acetoxyphenyl)ethane], the “binding to the mutant receptor” value [1] is reported as “no longer bound”, the “production of phospho-IκBα following TNF-α treatment” value [2] is reported as “reduced” and the “production of phospho-p38 following TNF-α treatment” value [2] is reported as “reduced”.
